These compounds were tested against IGF-1R (Homo sapiens (Human), UniProt P08069) (assay: Example B-1: IGF-1R Assay (PC3 cells, IGF1 stimulation, AlphaLISA)). Conditions: 200 ng/mL IGF1 stimulation, read-out: Biological Activity against IGF-1R IC50.
Assay type: cell-based
In short: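 PC3 cells were serum-starved 2 h, treated with serially diluted compounds for 2 h, then stimulated with IGF1 (200 ng/mL final) for 30 min. Lysates were read by AlphaLISA; % inhibition was calculated relative to vehicle and EC80 controls, with IC50 values binned into ranges.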

Chain of IGF-1R (P08069 31-1367): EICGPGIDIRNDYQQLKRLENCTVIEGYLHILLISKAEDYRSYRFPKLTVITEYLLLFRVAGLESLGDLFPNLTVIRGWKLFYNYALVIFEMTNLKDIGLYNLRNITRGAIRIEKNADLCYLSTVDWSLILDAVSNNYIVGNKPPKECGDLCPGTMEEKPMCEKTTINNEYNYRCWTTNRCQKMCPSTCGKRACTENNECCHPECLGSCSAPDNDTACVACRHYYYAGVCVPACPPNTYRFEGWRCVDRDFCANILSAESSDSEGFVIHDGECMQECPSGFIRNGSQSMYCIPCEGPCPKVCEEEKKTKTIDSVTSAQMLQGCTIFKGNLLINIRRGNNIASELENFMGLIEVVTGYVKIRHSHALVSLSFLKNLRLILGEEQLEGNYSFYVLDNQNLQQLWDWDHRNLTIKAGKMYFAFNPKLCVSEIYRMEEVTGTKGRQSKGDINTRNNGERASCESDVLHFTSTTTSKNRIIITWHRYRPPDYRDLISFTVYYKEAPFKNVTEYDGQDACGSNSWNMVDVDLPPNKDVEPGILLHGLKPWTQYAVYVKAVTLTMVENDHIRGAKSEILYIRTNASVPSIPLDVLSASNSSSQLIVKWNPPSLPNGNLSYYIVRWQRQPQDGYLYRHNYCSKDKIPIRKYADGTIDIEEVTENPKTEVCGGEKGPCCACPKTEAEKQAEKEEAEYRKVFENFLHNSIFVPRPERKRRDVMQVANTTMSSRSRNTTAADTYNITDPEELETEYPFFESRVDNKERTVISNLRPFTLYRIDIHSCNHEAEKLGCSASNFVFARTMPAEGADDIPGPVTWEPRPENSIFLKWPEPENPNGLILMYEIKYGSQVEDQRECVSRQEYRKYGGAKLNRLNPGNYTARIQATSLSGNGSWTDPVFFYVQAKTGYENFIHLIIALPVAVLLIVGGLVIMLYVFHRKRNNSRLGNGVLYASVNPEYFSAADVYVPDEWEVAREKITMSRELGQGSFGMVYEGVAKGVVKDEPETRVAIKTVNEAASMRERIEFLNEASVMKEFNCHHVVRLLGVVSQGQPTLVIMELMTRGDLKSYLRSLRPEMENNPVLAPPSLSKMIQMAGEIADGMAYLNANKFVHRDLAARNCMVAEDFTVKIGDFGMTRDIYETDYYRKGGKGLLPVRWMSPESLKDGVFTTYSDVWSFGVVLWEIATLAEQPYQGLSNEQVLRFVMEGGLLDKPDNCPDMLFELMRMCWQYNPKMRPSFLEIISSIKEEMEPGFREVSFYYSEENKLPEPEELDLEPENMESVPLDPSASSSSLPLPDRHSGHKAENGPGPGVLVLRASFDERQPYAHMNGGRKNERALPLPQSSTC

SMILES | IC50 [nM]
COc1cc(Nc2nccc(Nc3cnc4c(c3)CC3(CC4)OCCO3)n2)ccc1OCCCN1CCCCC1 [Compound 303, 4-(7′,8′-dihydro-5′H-spiro[1,3-dioxolane-2,6′-quinolin]-3′-ylamino)-2-[3-methoxy-4-(3-piperidinopropoxy)phenylamino] pyrimidine] | ≤ 500
COc1cc(Nc2nccc(Nc3cnc4c(=O)n(C)ncc4c3)n2)ccc1O[C@H]1C[C@@H](N(C)C)C1 [Compound 304, 3-(2-{3-methoxy-4-[(1s,3s)-3-(dimethylamino)cyclobutoxy]phenylamino}-4-pyrimidinylamino)-7-methyl-1,6,7-triaza-8(7H)-naphthalenone] | > 10000
COc1cc(Nc2nccc(Nc3ncc4c(Cl)cccc4n3)n2)ccc1O[C@H]1C[C@@H](N(C)C)C1 [Compound 306, 4-(5-chloro-2-quinazolinylamino)-2-{3-methoxy-4-[(1s,3s)-3-(dimethylamino)cyclobutoxy]phenylamino}pyrimidine] | > 10000
COc1cc(Nc2nccc(Nc3ncc4ccc(Br)cc4n3)n2)ccc1O[C@H]1C[C@@H](N(C)C)C1 [Compound 307, 4-(7-bromo-2-quinazolinylamino)-2-{3-methoxy-4-[(1s,3s)-3-(dimethylamino)cyclobutoxy]phenylamino}pyrimidine] | 2000 to 10000
O=C1CN([C@H]2CC[C@@H](Oc3ccc(Nc4nccc(Nc5cnc6ccc(Cl)cc6c5)n4)cc3)CC2)CCN1 [Compound 308] | ≤ 500
CN(C)[C@H]1CC[C@@H](Oc2ccc(Nc3nccc(Nc4cnc5ccc(Cl)cc5c4)n3)cc2)CC1 [Compound 310, 4-(6-chloro-3-quinolylamino)-2-{p-[(1s,4s)-4-(dimethylamino)cyclohexyloxy]phenylamino}pyrimidine] | ≤ 500
Clc1ccc2ncc(Nc3ccnc(Nc4ccc(O[C@H]5CC[C@@H](N6CCOCC6)CC5)cc4)n3)cc2c1 [Compound 311, 4-(6-chloro-3-quinolylamino)-2-{p-[(1s,4s)-4-morpholinocyclohexyloxy]phenylamino}pyrimidine] | ≤ 500
COc1cc(Nc2nccc(Nc3cnc4c(OC)cccc4c3)n2)ccc1O[C@H]1C[C@@H](N(C)C)C1 [Compound 312, 4-(8-methoxy-3-quinolylamino)-2-{3-methoxy-4-[(1s,3s)-3-(dimethylamino)cyclobutoxy]phenylamino}pyrimidine] | ≤ 500
COc1cc(Nc2nccc(Nc3cnc4ccc(C#N)cc4c3)n2)ccc1O[C@H]1C[C@@H](N(C)C)C1 [Compound 313, 3-(2-{3-methoxy-4-[(1s,3s)-3-(dimethylamino)cyclobutoxy]phenylamino}-4-pyrimidinylamino)-6-quinolinecarbonitrile] | ≤ 500
COc1cc(Nc2nccc(Nc3ccc4ncc(Br)cc4n3)n2)ccc1O[C@H]1C[C@@H](N(C)C)C1 [Compound 314, 4-(7-bromo-1,5-diaza-2-naphthylamino)-2-{3-methoxy-4-[(1s,3s)-3-(dimethylamino)cyclobutoxy]phenylamino}pyrimidine] | > 10000
CN(C)[C@H]1C[C@H](Oc2ccc(Nc3nccc(Nc4cnc5c(c4)CCCC5)n3)cc2)C1 [Compound 315, 2-{p-[(1r,3r)-3-(dimethylamino)cyclobutoxy]phenylamino}-4-(5,6,7,8-tetrahydro-3-quinolylamino)pyrimidine] | ≤ 500
COc1cc(Nc2nccc(Nc3cnc4cc(Br)cnc4c3)n2)ccc1O[C@H]1C[C@@H](N(C)C)C1 [Compound 316, 4-(7-bromo-1,5-diaza-3-naphthylamino)-2-{3-methoxy-4-[(1s,3s)-3-(dimethylamino)cyclobutoxy]phenylamino}pyrimidine] | ≤ 500
CN(C)[C@H]1C[C@H](Oc2ccc(Nc3nccc(Nc4cnc5c(c4)OCCO5)n3)cc2)C1 [Compound 317, 4-(2,3-dihydro-1,4-dioxa-5-aza-7-naphthylamino)-2-{p-[(1r,3r)-3-(dimethylamino)cyclobutoxy]phenylamino}pyrimidine] | ≤ 500

Reference: patent publication US20250171431A1, “HETEROCYCLIC INHIBITORS OF IGF-1R FOR TREATMENT OF DISEASE” (HORIZON THERAPEUTICS IRELAND DAC, priority 2023, published 2025)
